Source: patent publication US7704992B2, “Hepatitis C virus inhibitors” (Bristol-Myers Squibb Company, priority 2008, dated 2010)
Read-outs that look alike come from different tables or passages of the source.

Tested on: HCV 1b-377-neo replicon cells
Assay: HCV Replicon assay, HCV 1b genotype
Format: cell-based
Protocol: An HCV Replicon assay was utilized in the present disclosure, and was prepared, conducted and validated as described in commonly owned PCT/US2006/022197 and in O'Boyle et. al. Antimicrob Agents Chemother. 2005 April; 49(4): 1346-53.
HCV 1b-377-neo replicon cells were used to test the currently described compound series as well as cells resistant to compound A containing a Y2065H mutation in NS5A (described in application PCT/US2006/022197). The compounds tested were determined to have more than 10-fold less inhibitory activity on cells containing the mutation than wild-type cells indicating a related mechanism of action between the two compound series. Thus, the compounds of the present disclosure can be effective to inhibit the function of the HCV NS5A protein and are understood to be as effective in combinations as previously described in application PCT/US2006/022197 and commonly owned WO/04014852. Further, the compounds of the present disclosure can be effective against the HCV 1b genotype. It should also be understood that the compounds of the present disclosure can inhibit multiple genotypes of HCV. […] In one embodiment compounds of the present disclosure are active against the 1a, 1b, 2a, 2b, 3a, 4a, and 5a genotypes.

[1] = Hepatitis C virus, value in pM, read-out: EC50 value against HCV 1b
[2] = Hepatitis C virus, class symbol, read-out: EC50 range against HCV 1b

| Structure (SMILES) | EC50 [2] [pM] | further results |
| --- | --- | --- |
| COC(=O)N[C@H](C(=O)N1CCC[C@H]1c1ncc(-c2ccc3c(c2)C(=O)c2cc(-c4cnc([C@@H]5CCCN5C(=O)[C@@H](NC(=O)OC)C(C)C)[nH]4)ccc2-3)[nH]1)C(C)C [Example 1, methyl ((1S)-1-(((2S)-2-(5-(7-(2-((2S)-1-((2S)-2-((methoxycarbonyl)amino)-3-methylbutanoyl)-2-pyrrolidinyl)-1H-imidazol-5-yl)-9-oxo-9H-fluoren-2-yl)-1H-imidazol-2-yl)-1-pyrrolidinyl)carbonyl)-2-methylpropyl)carbamate] | – | EC50 [1]: 9 pM |
| COCCn1c2cc(-c3cnc([C@@H]4CCCN4C(=O)[C@H](C)NC(=O)OC)[nH]3)ccc2c2ccc(-c3cnc([C@@H]4CCCN4C(=O)[C@H](C)NC(=O)OC)[nH]3)cc21 [Example 34, methyl ((1S)-2-((2S)-2-(5-(7-(2-((2S)-1-(N-(methoxycarbonyl)-L-alanyl)-2-pyrrolidinyl)-1H-imidazol-5-yl)-9-(2-methoxyethyl)-9H-carbazol-2-yl)-1H-imidazol-2-yl)-1-pyrrolidinyl)-1-methyl-2-oxoethyl)carbamate] | 1000 to 99000 | – |
| COC(=O)N[C@@H](C)C(=O)N1CCC[C@H]1c1ncc(-c2ccc3c(c2)C2(CCC2)c2cc(-c4cnc([C@@H]5CCCN5C(=O)[C@H](C)NC(=O)OC)[nH]4)ccc2-3)[nH]1 [Example 17] | 1 to 100 | – |
| COC(=O)N[C@H](C(=O)N1CCC[C@H]1c1ncc(-c2ccc3c(c2)Cc2cc(-c4cnc([C@@H]5CCCN5C(=O)[C@@H](NC(=O)OC)[C@@H](C)OC)[nH]4)ccc2-3)[nH]1)[C@@H](C)OC [Example 5, methyl ((1S,2R)-2-methoxy-1-(((2S)-2-(5-(7-(2-((2S)-1-(N-(methoxycarbonyl)-O-methyl-L-threonyl)-2-pyrrolidinyl)-1H-imidazol-5-yl)-9H-fluoren-2-yl)-1H-imidazol-2-yl)-1-pyrrolidinyl)carbonyl)propyl)carbamate] | 1 to 100 | – |
| COCCn1c2cc(-c3cnc([C@@H]4CCCN4C(=O)[C@@H](NC(=O)OC)C(C)C)[nH]3)ccc2c2ccc(-c3cnc([C@@H]4CCCN4C(=O)[C@@H](NC(=O)OC)C(C)C)[nH]3)cc21 [Example 33, methyl ((1S)-1-(((2S)-2-(5-(7-(2-((2S)-1-((2S)-2-((methoxycarbonyl)amino)-3-methylbutanoyl)-2-pyrrolidinyl)-1H-imidazol-5-yl)-9-(2-methoxyethyl)-9H-carbazol-2-yl)-1H-imidazol-2-yl)-1-pyrrolidinyl)carbonyl)-2-methylpropyl)carbamate] | 1 to 100 | – |
| COC(=O)N[C@H](C(=O)N1CCC[C@H]1c1ncc(-c2ccc3c(c2)C(O)c2cc(-c4cnc([C@@H]5CCCN5C(=O)[C@@H](NC(=O)OC)C(C)C)[nH]4)ccc2-3)[nH]1)C(C)C [Example 2, methyl ((1S)-1-(((2S)-2-(5-(9-hydroxy-7-(2-((2S)-1-((2S)-2-((methoxycarbonyl)amino)-3-methylbutanoyl)-2-pyrrolidinyl)-1H-imidazol-5-yl)-9H-fluoren-2-yl)-1H-imidazol-2-yl)-1-pyrrolidinyl)carbonyl)-2-methylpropyl)carbamate] | 101 to 999 | – |
| COC(=O)N[C@H](C(=O)N1CCC[C@H]1c1ncc(-c2ccc3c4ccc(-c5cnc([C@@H]6CCCN6C(=O)[C@@H](NC(=O)OC)C(C)C)[nH]5)cc4n(C)c3c2)[nH]1)C(C)C [Example 25, methyl ((1S)-1-(((2S)-2-(5-(7-(2-((2S)-1-((2S)-2-((methoxycarbonyl)amino)-3-methylbutanoyl)-2-pyrrolidinyl)-1H-imidazol-5-yl)-9-methyl-9H-carbazol-2-yl)-1H-imidazol-2-yl)-1-pyrrolidinyl)carbonyl)-2-methylpropyl)carbamate] | 1 to 100 | – |
| COC(=O)N[C@@H](C)C(=O)N1CCC[C@H]1c1ncc(-c2ccc3c4ccc(-c5cnc([C@@H]6CCCN6C(=O)[C@H](C)NC(=O)OC)[nH]5)cc4n(S(=O)(=O)c4ccccc4)c3c2)[nH]1 [Example 26, methyl ((1S)-2-((2S)-2-(5-(7-(2-((2S)-1-(N-(methoxycarbonyl)-L-alanyl)-2-pyrrolidinyl)-1H-imidazol-5-yl)-9-(phenylsulfonyl)-9H-carbazol-2-yl)-1H-imidazol-2-yl)-1-pyrrolidinyl)-1-methyl-2-oxoethyl)carbamate] | 1 to 100 | – |
| COC(=O)N[C@H](C(=O)N1CCC[C@H]1c1ncc(-c2ccc3c4ccc(-c5cnc([C@@H]6CCCN6C(=O)[C@@H](NC(=O)OC)[C@@H](C)OC)[nH]5)cc4n(C)c3c2)[nH]1)[C@@H](C)OC [Example 23, methyl ((1S,2R)-2-methoxy-1-(((2S)-2-(5-(7-(2-((2S)-1-(N-(methoxycarbonyl)-O-methyl-L-threonyl)-2-pyrrolidinyl)-1H-imidazol-5-yl)-9-methyl-9H-carbazol-2-yl)-1H-imidazol-2-yl)-1-pyrrolidinyl)carbonyl)propyl) carbamate] | – | EC50 (class symbol, read-out: EC50 range against HCV 1b): 1 to 100 pM |
| COC(=O)N[C@@H](C)C(=O)N1CCC[C@H]1c1ncc(-c2ccc3c(c2)[nH]c2cc(-c4cnc([C@@H]5CCCN5C(=O)[C@H](C)NC(=O)OC)[nH]4)ccc23)[nH]1 [Example 30, methyl ((1S)-2-((2S)-2-(5-(7-(2-((2S)-1-(N-(methoxycarbonyl)-L-alanyl)-2-pyrrolidinyl)-1H-imidazol-5-yl)-9H-carbazol-2-yl)-1H-imidazol-2-yl)-1-pyrrolidinyl)-1-methyl-2-oxoethyl)carbamate] | – | EC50 (Hepatitis C virus, value in nM, read-out: EC50 value against HCV 1b): 20000 pM |
| COC(=O)N[C@H](C(=O)N1CCC[C@H]1c1ncc(-c2ccc3c(c2)[nH]c2cc(-c4cnc([C@@H]5CCCN5C(=O)[C@@H](NC(=O)OC)C(C)C)[nH]4)ccc23)[nH]1)C(C)C [Example 32] | 101 to 999 | – |
| COC(=O)N[C@H](C(=O)N1CCC[C@H]1c1ncc(-c2ccc3c(c2)C(C)(C)c2cc(-c4cnc([C@@H]5CCCN5C(=O)[C@@H](NC(=O)OC)C5CC5)[nH]4)ccc2-3)[nH]1)C1CC1 [Example 15, dimethyl ((9,9-dimethyl-9H-fluorene-2,7-diyl)bis(1H-imidazole-5,2-diyl(2S)-2,1-pyrrolidinediyl((1S)-1-cyclopropyl-2-oxo-2,1-ethanediyl)))biscarbamate] | – | EC50 [1]: 52 pM |
| COC(=O)N[C@H](C(=O)N1CCC[C@H]1c1ncc(-c2ccc3c(c2)oc2cc(-c4cnc([C@@H]5CCCN5C(=O)[C@@H](NC(=O)OC)C(C)C)[nH]4)ccc23)[nH]1)C(C)C [Example 18, methyl ((1S)-1-(((2S)-2-(4-(7-(2-((2S)-1-((2S)-2-((methoxycarbonyl)amino)-3-methylbutanoyl)-2-pyrrolidinyl)-1H-imidazol-4-yl)dibenzo[b,d]furan-3-yl)-1H-imidazol-2-yl)-1-pyrrolidinyl)carbonyl)-2-methylpropyl)carbamate] | 1 to 100 | – |
| COC(=O)N[C@H](C(=O)N1CCC[C@H]1c1ncc(-c2ccc3c(c2)COCc2cc(-c4cnc([C@@H]5CCCN5C(=O)[C@@H](NC(=O)OC)[C@@H](C)OC)[nH]4)ccc2-3)[nH]1)[C@@H](C)OC [Example 11, methyl ((1S,2R)-2-methoxy-1-(((2S)-2-(4-(9-(2-((2S)-1-(N-(methoxycarbonyl)-O-methyl-L-threonyl)-2-pyrrolidinyl)-1H-imidazol-4-yl)-5,7-dihydrodibenzo[c,e]oxepin-3-yl)-1H-imidazol-2-yl)-1-pyrrolidinyl)carbonyl)propyl)carbamate] | – | EC50 [1]: 146 pM |
| COC(=O)N[C@H](C(=O)N1CCC[C@H]1c1ncc(-c2ccc3c4ccc(-c5cnc([C@@H]6CCCN6C(=O)[C@@H](NC(=O)OC)C(C)C)[nH]5)cc4n(S(=O)(=O)c4ccccc4)c3c2)[nH]1)C(C)C [Example 27, methyl ((1S)-1-(((2S)-2-(5-(7-(2-((2S)-1-((2S)-2-((methoxycarbonyl)amino)-3-methylbutanoyl)-2-pyrrolidinyl)-1H-imidazol-5-yl)-9-(phenylsulfonyl)-9H-carbazol-2-yl)-1H-imidazol-2-yl)-1-pyrrolidinyl)carbonyl)-2-methylpropyl)carbamate] | 1 to 100 | – |
| COC(=O)NC(C(=O)N1CCC[C@H]1c1ncc(-c2ccc3c(c2)COCc2cc(-c4cnc([C@@H]5CCCN5C(=O)C(NC(=O)OC)C5CCOCC5)[nH]4)ccc2-3)[nH]1)C1CCOCC1 (stereo partly drawn) [Example 10A, dimethyl (5,7-dihydrodibenzo[c,e]oxepine-3,9-diylbis(1H-imidazole-4,2-diyl(2S)-2,1-pyrrolidinediyl(2-oxo-1-(tetrahydro-2H-pyran-4-yl)-2,1-ethanediyl)))biscarbamate] | 1000 to 99000 | – |
| COCC[C@H](NC(=O)OC)C(=O)N1CCC[C@H]1c1ncc(-c2ccc3c4ccc(-c5cnc([C@@H]6CCCN6C(=O)[C@H](CCOC)NC(=O)OC)[nH]5)cc4n(S(=O)(=O)c4ccccc4)c3c2)[nH]1 [Example 28, methyl ((1S)-3-methoxy-1-(((2S)-2-(5-(7-(2-((2S)-1-(N-(methoxycarbonyl)-O-methyl-L-homoseryl)-2-pyrrolidinyl)-1H-imidazol-5-yl)-9-(phenylsulfonyl)-9H-carbazol-2-yl)-1H-imidazol-2-yl)-1-pyrrolidinyl)carbonyl)propyl)carbamate] | 1 to 100 | – |
| COCC[C@H](NC(=O)OC)C(=O)N1CCC[C@H]1c1ncc(-c2ccc3c(c2)[nH]c2cc(-c4cnc([C@@H]5CCCN5C(=O)[C@H](CCOC)NC(=O)OC)[nH]4)ccc23)[nH]1 [Example 31, methyl ((1S)-3-methoxy-1-(((2S)-2-(5-(7-(2-((2S)-1-(N-(methoxycarbonyl)-O-methyl-L-homoseryl)-2-pyrrolidinyl)-1H-imidazol-5-yl)-9H-carbazol-2-yl)-1H-imidazol-2-yl)-1-pyrrolidinyl)carbonyl)propyl) carbamate] | 1000 to 99000 | – |
